# Key:
# Type in all cases: binding
# CLK1 = target: T1, CLK1 (Homo sapiens, UniProt P49759); assay: KINOMEscan, CLK1; details: for remaining binding at 1 µM: read-out: % of control at 1 µM
# T1 construct: purchased Ambit Biosciences (scanMAXX KINOMEscan)
# CLK4 = target: T2, CLK4 (Homo sapiens, UniProt Q9HAZ1); assay: KINOMEscan, CLK4; details: for remaining binding at 1 µM: read-out: % of control at 1 µM
# T2 construct: purchased Ambit Biosciences (scanMAXX KINOMEscan)
# ERBB3 = target: T3, ERBB3 (Homo sapiens, UniProt P21860); assay: KINOMEscan, ERBB3; details: for remaining binding at 1 µM / remaining binding at 10 µM: ERBB3; for remaining binding at 1 µM: read-out: % of control at 1 µM; for remaining binding at 10 µM: read-out: % of control at 10 µM
# T3 construct: purchased Ambit Biosciences (scanMAXX KINOMEscan)
# T3 sequence (P21860 20-1342): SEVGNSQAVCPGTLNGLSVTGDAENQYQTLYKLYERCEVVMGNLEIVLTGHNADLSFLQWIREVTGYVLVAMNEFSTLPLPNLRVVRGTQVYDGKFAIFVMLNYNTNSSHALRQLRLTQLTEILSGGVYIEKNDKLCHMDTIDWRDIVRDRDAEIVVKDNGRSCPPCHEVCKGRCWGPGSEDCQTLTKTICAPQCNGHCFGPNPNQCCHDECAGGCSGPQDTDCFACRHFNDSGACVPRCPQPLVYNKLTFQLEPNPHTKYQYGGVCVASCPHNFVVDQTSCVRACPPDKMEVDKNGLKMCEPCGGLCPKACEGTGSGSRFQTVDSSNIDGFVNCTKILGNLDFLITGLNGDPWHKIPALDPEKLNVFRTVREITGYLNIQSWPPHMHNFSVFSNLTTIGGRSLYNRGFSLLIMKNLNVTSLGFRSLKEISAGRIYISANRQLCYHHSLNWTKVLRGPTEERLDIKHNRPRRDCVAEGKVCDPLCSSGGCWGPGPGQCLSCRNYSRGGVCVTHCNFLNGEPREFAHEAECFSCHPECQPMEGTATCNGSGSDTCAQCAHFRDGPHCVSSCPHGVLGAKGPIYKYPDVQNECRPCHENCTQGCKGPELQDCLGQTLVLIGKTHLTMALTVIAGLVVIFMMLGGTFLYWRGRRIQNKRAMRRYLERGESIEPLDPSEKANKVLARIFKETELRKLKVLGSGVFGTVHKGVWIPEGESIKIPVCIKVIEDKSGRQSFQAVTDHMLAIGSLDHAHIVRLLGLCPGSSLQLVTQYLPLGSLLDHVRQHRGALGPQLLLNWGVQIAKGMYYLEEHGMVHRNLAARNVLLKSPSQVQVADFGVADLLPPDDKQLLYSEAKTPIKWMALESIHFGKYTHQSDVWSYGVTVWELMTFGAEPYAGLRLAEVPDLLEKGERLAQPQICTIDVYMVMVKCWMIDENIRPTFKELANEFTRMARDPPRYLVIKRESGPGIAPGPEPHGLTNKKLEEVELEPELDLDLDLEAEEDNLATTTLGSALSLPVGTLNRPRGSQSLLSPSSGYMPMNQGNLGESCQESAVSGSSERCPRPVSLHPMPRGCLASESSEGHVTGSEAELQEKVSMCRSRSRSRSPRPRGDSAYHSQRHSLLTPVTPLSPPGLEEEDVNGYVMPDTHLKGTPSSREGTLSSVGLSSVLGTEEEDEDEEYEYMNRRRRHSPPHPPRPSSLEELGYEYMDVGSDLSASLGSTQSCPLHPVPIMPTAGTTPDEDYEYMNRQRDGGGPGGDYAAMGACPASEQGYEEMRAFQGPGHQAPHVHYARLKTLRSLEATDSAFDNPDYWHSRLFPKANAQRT
# MAP4K2 = target: T4, MAP4K2 (Homo sapiens, UniProt Q12851); assay: KINOMEscan, MAP4K2; details: for remaining binding at 1 µM / remaining binding at 10 µM: kinase MAP4K2; for remaining binding at 1 µM: read-out: % of control at 1 µM; for remaining binding at 10 µM: read-out: % of control at 10 µM
# T4 construct: purchased Ambit Biosciences (scanMAXX KINOMEscan)
# T4 sequence (Q12851 1-820): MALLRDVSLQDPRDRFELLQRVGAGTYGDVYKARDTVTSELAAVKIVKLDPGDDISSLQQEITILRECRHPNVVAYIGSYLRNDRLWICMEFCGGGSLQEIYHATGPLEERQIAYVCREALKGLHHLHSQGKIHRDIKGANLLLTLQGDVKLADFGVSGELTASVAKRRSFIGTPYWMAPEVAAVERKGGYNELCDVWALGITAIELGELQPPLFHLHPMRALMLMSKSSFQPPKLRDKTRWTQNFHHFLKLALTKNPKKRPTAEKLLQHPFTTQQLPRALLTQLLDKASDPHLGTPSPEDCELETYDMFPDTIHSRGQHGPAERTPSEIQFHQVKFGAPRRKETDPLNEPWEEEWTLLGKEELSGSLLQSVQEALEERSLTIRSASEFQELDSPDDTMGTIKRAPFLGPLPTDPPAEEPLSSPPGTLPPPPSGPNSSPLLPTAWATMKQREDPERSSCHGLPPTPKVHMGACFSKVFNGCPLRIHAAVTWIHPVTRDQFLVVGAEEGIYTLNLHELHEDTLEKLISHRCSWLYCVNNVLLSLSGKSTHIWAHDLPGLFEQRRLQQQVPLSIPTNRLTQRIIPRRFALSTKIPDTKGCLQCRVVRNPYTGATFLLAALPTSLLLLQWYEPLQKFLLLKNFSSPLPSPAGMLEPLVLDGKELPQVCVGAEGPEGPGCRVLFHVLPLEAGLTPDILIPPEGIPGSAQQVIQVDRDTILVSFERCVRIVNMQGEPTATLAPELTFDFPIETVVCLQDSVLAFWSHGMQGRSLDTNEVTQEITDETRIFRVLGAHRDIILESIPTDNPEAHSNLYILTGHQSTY
# PIK3C2G = target: T5, PIK3C2G (Homo sapiens, UniProt O75747); assay: KINOMEscan, PIK3C2G; details: for remaining binding at 1 µM / remaining binding at 10 µM: kinase PIK3C2G; for remaining binding at 1 µM: read-out: % of control at 1 µM; for remaining binding at 10 µM: read-out: % of control at 10 µM
# T5 construct: purchased Ambit Biosciences (scanMAXX KINOMEscan)
# T5 sequence (O75747 1-1486): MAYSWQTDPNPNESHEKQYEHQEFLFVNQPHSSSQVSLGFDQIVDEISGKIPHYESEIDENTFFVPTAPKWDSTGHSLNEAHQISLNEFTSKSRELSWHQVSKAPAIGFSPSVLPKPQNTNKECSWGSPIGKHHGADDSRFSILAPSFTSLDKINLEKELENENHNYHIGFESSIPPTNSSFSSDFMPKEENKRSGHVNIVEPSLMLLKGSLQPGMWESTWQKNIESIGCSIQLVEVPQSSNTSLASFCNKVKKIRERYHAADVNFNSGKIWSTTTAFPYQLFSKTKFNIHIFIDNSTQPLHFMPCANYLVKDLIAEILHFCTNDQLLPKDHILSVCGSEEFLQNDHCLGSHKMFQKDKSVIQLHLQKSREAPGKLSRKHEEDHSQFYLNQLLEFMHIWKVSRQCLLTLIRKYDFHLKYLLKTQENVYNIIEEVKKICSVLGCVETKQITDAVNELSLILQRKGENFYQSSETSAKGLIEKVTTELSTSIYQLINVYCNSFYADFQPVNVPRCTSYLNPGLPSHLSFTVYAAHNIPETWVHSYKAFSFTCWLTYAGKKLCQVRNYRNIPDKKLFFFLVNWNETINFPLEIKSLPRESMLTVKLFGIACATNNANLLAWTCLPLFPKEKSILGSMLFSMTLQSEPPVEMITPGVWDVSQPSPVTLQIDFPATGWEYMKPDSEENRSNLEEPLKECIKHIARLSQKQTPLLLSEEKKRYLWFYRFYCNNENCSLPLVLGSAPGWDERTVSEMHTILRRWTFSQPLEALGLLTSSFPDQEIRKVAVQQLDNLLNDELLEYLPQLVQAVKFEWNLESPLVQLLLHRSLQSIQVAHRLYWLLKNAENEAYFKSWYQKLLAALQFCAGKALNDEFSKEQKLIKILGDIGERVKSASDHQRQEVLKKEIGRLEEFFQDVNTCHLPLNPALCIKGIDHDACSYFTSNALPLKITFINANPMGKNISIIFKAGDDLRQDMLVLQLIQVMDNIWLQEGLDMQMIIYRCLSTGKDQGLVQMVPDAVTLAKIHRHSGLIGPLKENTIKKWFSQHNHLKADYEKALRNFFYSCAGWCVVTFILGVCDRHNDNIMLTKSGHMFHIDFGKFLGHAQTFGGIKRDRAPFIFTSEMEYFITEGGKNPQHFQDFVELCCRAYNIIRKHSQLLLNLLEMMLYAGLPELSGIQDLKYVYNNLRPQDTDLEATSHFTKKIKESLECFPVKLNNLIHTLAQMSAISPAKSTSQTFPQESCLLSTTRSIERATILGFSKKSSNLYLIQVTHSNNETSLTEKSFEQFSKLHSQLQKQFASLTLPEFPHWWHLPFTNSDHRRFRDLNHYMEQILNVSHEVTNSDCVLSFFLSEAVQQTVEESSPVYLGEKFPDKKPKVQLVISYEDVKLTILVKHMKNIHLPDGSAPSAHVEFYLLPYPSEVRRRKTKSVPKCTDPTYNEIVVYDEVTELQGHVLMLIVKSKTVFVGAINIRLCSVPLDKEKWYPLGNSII
# T1 sequence (P49759 whole entry): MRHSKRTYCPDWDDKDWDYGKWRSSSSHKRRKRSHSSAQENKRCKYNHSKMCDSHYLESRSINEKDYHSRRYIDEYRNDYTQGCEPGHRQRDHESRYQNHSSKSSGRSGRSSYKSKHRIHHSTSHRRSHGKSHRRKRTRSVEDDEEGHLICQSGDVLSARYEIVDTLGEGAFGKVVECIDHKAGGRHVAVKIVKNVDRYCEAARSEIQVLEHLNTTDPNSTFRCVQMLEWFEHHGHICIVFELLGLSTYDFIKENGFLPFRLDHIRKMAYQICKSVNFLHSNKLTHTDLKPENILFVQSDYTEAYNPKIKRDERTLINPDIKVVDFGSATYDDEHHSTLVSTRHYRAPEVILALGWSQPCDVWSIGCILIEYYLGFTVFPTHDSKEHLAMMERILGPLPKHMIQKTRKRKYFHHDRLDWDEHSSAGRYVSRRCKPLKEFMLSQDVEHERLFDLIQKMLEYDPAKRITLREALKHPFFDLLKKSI
# T2 sequence (Q9HAZ1 whole entry): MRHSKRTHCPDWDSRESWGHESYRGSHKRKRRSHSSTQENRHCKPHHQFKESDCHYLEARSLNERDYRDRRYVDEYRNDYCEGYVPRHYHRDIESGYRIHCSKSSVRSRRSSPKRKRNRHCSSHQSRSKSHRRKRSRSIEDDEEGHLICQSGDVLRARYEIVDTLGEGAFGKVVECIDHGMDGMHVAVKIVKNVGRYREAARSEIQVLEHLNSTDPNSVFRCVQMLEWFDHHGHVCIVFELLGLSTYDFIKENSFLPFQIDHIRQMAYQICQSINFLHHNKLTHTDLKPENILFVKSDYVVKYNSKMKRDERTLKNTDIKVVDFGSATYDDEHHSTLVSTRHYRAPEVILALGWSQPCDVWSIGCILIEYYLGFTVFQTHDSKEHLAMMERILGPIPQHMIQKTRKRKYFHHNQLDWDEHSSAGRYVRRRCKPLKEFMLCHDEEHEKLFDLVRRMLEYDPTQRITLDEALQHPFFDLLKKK
smiles,measurement,setting,value
Nc1cc(C(F)(F)F)c(-c2cc(N3CCOCC3)nc(N3CCOCC3)n2)cn1 [Buparlisib],binding to CLK1,CLK1; 10 μM,> 80%
same,remaining binding at 1 µM,CLK1; CLK1,42%
same,remaining binding at 10 µM,"CLK1; CLK1, 10 µM, read-out: % of control at 10 µM",5.3%
same,binding to CLK4,CLK4; 10 μM,> 80%
same,remaining binding at 1 µM,CLK4; CLK4,38%
same,remaining binding at 10 µM,"CLK4; CLK4, 10 µM, read-out: % of control at 10 µM",13%
same,remaining binding at 1 µM,ERBB3,100%
same,remaining binding at 10 µM,ERBB3,90%
same,remaining binding at 1 µM,MAP4K2,82%
same,remaining binding at 10 µM,MAP4K2,100%
same,remaining binding at 1 µM,PIK3C2G,97%
same,remaining binding at 10 µM,PIK3C2G,35%
"Cn1c(=O)n(-c2ccc(C(C)(C)C#N)cc2)c2c3cc(-c4cnc5ccccc5c4)ccc3ncc21 [Dactolisib, 2-methyl-2-[4-(3-methyl-2-oxo-8-quinolin-3-yl-2,3-dihydroimidazo[4,5-c]quinolin-1-yl)-phenyl] propionitrile]",inhibition at 1 µM,CLK1; 1 μM,> 80%
same,remaining binding at 1 µM,CLK1; CLK1,13%
same,inhibition at 1 µM,CLK4; 1 μM,> 80%
same,remaining binding at 1 µM,CLK4; CLK4,12%
same,inhibition at 1 µM,ERBB3; 1 μM,> 80%
same,remaining binding at 1 µM,ERBB3,9.2%
same,inhibition at 1 µM,MAP4K2; 1 μM,> 80%
same,remaining binding at 1 µM,MAP4K2,0.25%
same,inhibition at 1 µM,PIK3C2G; 1 μM,> 80%
same,remaining binding at 1 µM,PIK3C2G,0%
COc1ncc(-c2ccc3nccc(-c4ccnnc4)c3c2)cc1NS(=O)(=O)c1ccc(F)cc1F [Omipalisib],remaining binding at 1 µM,CLK1; CLK1,96%
same,remaining binding at 1 µM,CLK4; CLK4,100%
same,remaining binding at 1 µM,ERBB3,95%
same,remaining binding at 1 µM,MAP4K2,100%
same,off-target binding to PIK3C2G,PIK3C2G; 1 μM,non-selective
same,remaining binding at 1 µM,PIK3C2G,0%
"CS(=O)(=O)N1CCN(Cc2cc3nc(-c4cccc5[nH]ncc45)nc(N4CCOCC4)c3s2)CC1 [Pictilisib, 2-(1H-indazol-4-yl)-6-(4-methanesulfonyl-piperazin-1-ylmethyl)-4-morpholin-4-yl-t hieno[3,2-d]pyrimidine]",remaining binding at 1 µM,ERBB3,100%
same,remaining binding at 10 µM,ERBB3,96%
same,remaining binding at 1 µM,MAP4K2,100%
same,remaining binding at 10 µM,MAP4K2,61%
same,off-target activity against PIK3C2G,PIK3C2G; 10 μM,active
same,remaining binding at 1 µM,PIK3C2G,32%
same,remaining binding at 10 µM,PIK3C2G,2.1%
"FC(F)c1nc2ccccc2n1-c1nc(N2CCOCC2)nc(N2CCOCC2)n1 [ZSTK474, 2-(difluoromethyl)-1-[4,6-di(4-morpholinyl)-1,3,5-triazin-2-yl]-1H-benzimidazole]",remaining binding at 1 µM,CLK1; CLK1,100%
same,remaining binding at 1 µM,CLK4; CLK4,96%
same,remaining binding at 1 µM,ERBB3,24%
same,remaining binding at 1 µM,MAP4K2,85%
same,off-target binding to PIK3C2G,PIK3C2G; 1 μM,high binding affinity
same,remaining binding at 1 µM,PIK3C2G,0%
